Experimental data reported in patent EP4692114A1, “CALCITONIN ANALOGUE, AND DERIVATIVE THEREOF AND USE THEREOF” (Hangzhou Sciwind Biosciences Co., Ltd., priority 2023, dated 2024).
*1 amine or outer side, *2 acyl side, *3 side chain or, on linkers, in order; H or OH if unused. Where a SMILES comes first, the peptide text is derived from it. The star is where a group is joined. C20 diacid = O=C(O)CCCCCCCCCCCCCCCCCCC(=O)*; γGlu = O=C(O)[C@H](CCC(=O)[*:2])N[*:1]

Assays:
[1] = background statement; cited from earlier work
[2] = Heat accelerated stability assay for compatibility testing (M8 with M51); format: physicochemical; conditions: M8 1 mg/ml with M51 1 mg/ml, pH about 7.4, one-month heat accelerated assay, without and with excipients (phenol, 1,2-dihydroxypropane)
Protocol: The calcitonin analogue M8 (1 mg/ml), the GLP-1 receptor agonist M51 (1 mg/ml), and sodium dihydrogen phosphate (1.42 mg/ml) were mixed and dissolved in ultrapure water, and 5.5 mg/ml phenol and 14 mg/ml 1,2-dihydroxypropane were further added for the testing group with excipients. After pH was adjusted to about 7.4 with hydrochloric acid/sodium hydroxide, accelerated stability assays were performed according to the method of Example 3. […] Thus, they had the potential to be developed as a co-formulation.

[3] = Heat accelerated stability assay under a neutral condition; format: physicochemical; conditions: pH about 7.4, 40°C; for Changes in characteristics or properties, 0d / Changes in characteristics or properties, 7d / Characteristics or properties on Day 26: 1 mg/mL, phosphate; for Concentration change on Day 26 as compared to Day 0: Day 26 vs Day 0; for Purity Change% (7d-0d): purity from reversed phase chromatography-214 nm, Day 7 vs Day 0
In short: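 Peptide (1 mg/mL) with sodium dihydrogen phosphate (1.42 mg/mL) in water, pH ~7.4, was sterile-filtered and stored at 40 °C, sampled on days 7 and 26. After centrifugation, concentration and purity (target/total peak area) were measured by reversed-phase HPLC at 214 and 280 nm, water/0.05% TFA to acetonitrile gradient, 25 °C column.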

[4] = Study of weight change and food consumption in rats; format: in vivo, SD (Sprague Dawley) rats; conditions: SD rats, subcutaneous, 10 nmol/kg; for Effect on reducing food intake: accumulated food intake recorded every 24 hours (FIGs. 7 and 9); for Effect on reducing body weight: recorded every 24 hours (FIGs. 6 and 8)
Description: SD (Sprague Dawley) rats weighing 200-250 g were used for this study. The rats were received at least 10-14 days before the study began such that they could accommodate to the experimental environment. After arrival, they were exposed to a reversed light/dark cycle (i.e., lights switched off in daytime and on in nighttime) for two weeks and were individually housed for the first week so as to ensure high data accuracy and test sensitivity. Throughout the acclimation and experiment period, the rats had free access to food and water. 5-8 rats were assigned to each testing group for the derivatives and were subcutaneously administered the derivatives at a dose of 10 nmol/kg or a vehicle, and the dosing timepoint was recorded for each group. After dosing, the rats were put back into cages where they were housed and could have access to food and water. Food consumption and weight change of the rats were recorded online or manually every 24 hours.

human amylin receptors = target: T1, human amylin receptors (Homo sapiens, UniProt O60896+P30988); assay: Luciferase assay of amylin (amylin receptor/CRE-luc cell line); format: cell-based; conditions: stably transfected amylin receptor/CRE-luc CHO cells (CHO-K1/Gal5/AMY3), 24 hours incubation, luciferase readout;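 further: agonist potency from luminescence of cAMP response element-driven luciferase, EC50 derived from a standard curve of signal versus compound concentration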
T1 sequence (P30988 25-474): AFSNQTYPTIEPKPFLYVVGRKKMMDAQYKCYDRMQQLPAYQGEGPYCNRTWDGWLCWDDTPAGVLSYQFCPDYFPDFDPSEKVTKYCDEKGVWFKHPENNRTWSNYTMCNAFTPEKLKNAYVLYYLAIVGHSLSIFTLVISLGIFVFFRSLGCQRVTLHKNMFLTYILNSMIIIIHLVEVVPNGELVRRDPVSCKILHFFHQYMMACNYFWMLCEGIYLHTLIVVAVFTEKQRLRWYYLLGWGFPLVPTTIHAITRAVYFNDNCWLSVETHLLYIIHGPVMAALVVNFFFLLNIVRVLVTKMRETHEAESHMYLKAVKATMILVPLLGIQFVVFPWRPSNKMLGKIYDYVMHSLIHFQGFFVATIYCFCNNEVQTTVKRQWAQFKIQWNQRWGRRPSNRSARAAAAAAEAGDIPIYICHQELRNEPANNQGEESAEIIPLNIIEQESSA
T1 sequence (O60896 24-148 partner): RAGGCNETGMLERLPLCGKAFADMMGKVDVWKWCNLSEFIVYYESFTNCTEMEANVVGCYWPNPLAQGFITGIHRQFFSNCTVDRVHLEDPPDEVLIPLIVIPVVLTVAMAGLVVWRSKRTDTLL

| Change in the spectra of reversed phase chromatography (compatibility) [2] | Changes in characteristics or properties, 0d [3] | Changes in characteristics or properties, 7d ([3]; 7d) | Characteristics or properties on Day 26 [3] | Reversed phase chromatography 26d change ([3]; Table 8, purity change, 26d) [%] | Concentration change on Day 26 as compared to Day 0 [3] | EC50 (human amylin receptors) [nM] | Structure (SMILES) | half-life [1] | Reversed phase chromatography 7d change ([3]; Table 8, purity change, 7d) | Purity Change% (7d-0d) [3] | Effect on reducing food intake [4] | Effect on reducing body weight [4] | Concentration change (7d-0d)/% ([3]; Day 7 vs Day 0, reversed phase chromatography) |
| --- | --- | --- | --- | --- | --- | --- | --- | --- | --- | --- | --- | --- | --- |
| – | – | – | – | – | – | – | CC(C)C[C@H](NC(=O)[C@H](CCCCN)NC(=O)CNC(=O)[C@H](CC(C)C)NC(=O)[C@@H](NC(=O)[C@@H]1CSSC[C@H](N)C(=O)N[C@@H](CO)C(=O)N[C@@H](CC(N)=O)C(=O)N[C@@H](CC(C)C)C(=O)N[C@@H](CO)C(=O)N[C@@H]([C@@H](C)O)C(=O)N1)C(C)C)C(=O)N[C@@H](CO)C(=O)N[C@@H](CCC(N)=O)C(=O)N[C@@H](CCC(=O)O)C(=O)N[C@@H](CC(C)C)C(=O)N[C@@H](Cc1c[nH]cn1)C(=O)N[C@@H](CCCCN)C(=O)N[C@@H](CC(C)C)C(=O)N[C@@H](CCC(N)=O)C(=O)N[C@H](C(=O)N[C@@H](Cc1ccc(O)cc1)C(=O)N1CCC[C@H]1C(=O)N[C@@H](CCCNC(=N)N)C(=O)N[C@H](C(=O)N[C@@H](CC(N)=O)C(=O)N[C@H](C(=O)NCC(=O)N[C@@H](CO)C(=O)NCC(=O)N[C@H](C(=O)N1CCC[C@H]1C(N)=O)[C@@H](C)O)[C@@H](C)O)[C@@H](C)O)[C@@H](C)O [D2, salmon calcitonin] | less than two hours | – | – | – | – | – |
| only a little change | Clear | Clear | clear solution | -0.12 | less than 2% | 0.017 | CC(C)C[C@H](NC(=O)[C@H](CCCNC(=N)N)NC(=O)CNC(=O)[C@H](CC(C)C)NC(=O)[C@@H](NC(=O)[C@H](C)NC(=O)[C@@H](NC(=O)[C@H](CO)NC(=O)[C@H](CC(C)C)NC(=O)[C@H](CCC(N)=O)NC(=O)[C@H](CO)NC(=O)[C@H](C)NC(=O)CC[C@H](NC(=O)CCCCCCCCCCCCCCCCCCC(=O)O)C(=O)O)[C@@H](C)O)C(C)C)C(=O)N[C@@H](CO)C(=O)N[C@@H](CC(=O)O)C(=O)N[C@@H](CCC(=O)O)C(=O)N[C@@H](CC(C)C)C(=O)N[C@@H](Cc1c[nH]cn1)C(=O)N[C@@H](CCCNC(=N)N)C(=O)N[C@@H](CC(C)C)C(=O)N[C@@H](CCC(N)=O)C(=O)N[C@@H](CC(=O)O)C(=O)N[C@@H](Cc1ccc(O)cc1)C(=O)N1CCC[C@H]1C(=O)N[C@@H](CCCNC(=N)N)C(=O)N[C@H](C(=O)N[C@@H](CC(=O)O)C(=O)N[C@H](C(=O)NCC(=O)N[C@@H](CO)C(=O)NCC(=O)N[C@@H](CO)C(=O)N1CCC[C@H]1C(N)=O)C(C)C)[C@@H](C)O [M8] ({C20 diacid-γGlu}-ASQLSTAVLGRLSDELHRLQDYPRTDVGSGSP-NH2) | – | No change (a decrease of less than 1% from the initial value to the detected content is denoted as "no change") | No change (a decrease of less than 1% from the initial value to the detected content is denoted as "no change") | prominent effect | prominent effect | – |
| – | Clear | Clear | clear solution | – | – | 0.017 | CC(C)C[C@H](NC(=O)[C@H](CCCNC(=N)N)NC(=O)CNC(=O)[C@H](CC(C)C)NC(=O)[C@@H](NC(=O)[C@H](C)NC(=O)[C@@H](NC(=O)[C@H](CO)NC(=O)[C@H](CC(C)C)NC(=O)[C@H](CCC(N)=O)NC(=O)[C@H](CO)NC(=O)[C@H](C)NC(=O)CC[C@H](NC(=O)CCCCCCCCCCCCCCCCCCC(=O)O)C(=O)O)[C@@H](C)O)C(C)C)C(=O)N[C@@H](CO)C(=O)N[C@@H](CCC(=O)O)C(=O)N[C@@H](CCC(=O)O)C(=O)N[C@@H](CC(C)C)C(=O)N[C@@H](Cc1c[nH]cn1)C(=O)N[C@@H](CCCNC(=N)N)C(=O)N[C@@H](CC(C)C)C(=O)N[C@@H](CCC(N)=O)C(=O)N[C@@H](CC(=O)O)C(=O)N[C@@H](Cc1ccc(O)cc1)C(=O)N1CCC[C@H]1C(=O)N[C@@H](CCCNC(=N)N)C(=O)N[C@H](C(=O)N[C@@H](CC(=O)O)C(=O)N[C@H](C(=O)NCC(=O)N[C@@H](CO)C(=O)NCC(=O)N[C@@H](CO)C(=O)N1CCC[C@H]1C(N)=O)C(C)C)[C@@H](C)O [M9] ({C20 diacid-γGlu}-ASQLSTAVLGRLSEELHRLQDYPRTDVGSGSP-NH2) | – | – | No change (a decrease of less than 1% from the initial value to the detected content is denoted as "no change") | particularly effective | particularly effective | No change (a decrease of less than 1% from the initial value to the detected content is denoted as "no change") |
| – | Clear | Clear | clear solution | – | less than 2% | 0.017 | CC(C)C[C@H](NC(=O)[C@H](CCCNC(=N)N)NC(=O)CNC(=O)[C@H](CC(C)C)NC(=O)[C@@H](NC(=O)[C@H](C)NC(=O)[C@@H](NC(=O)[C@H](CO)NC(=O)[C@H](CC(C)C)NC(=O)[C@H](CCC(N)=O)NC(=O)[C@H](CO)NC(=O)[C@H](C)NC(=O)CC[C@H](NC(=O)CCCCCCCCCCCCCCCCCCC(=O)O)C(=O)O)[C@@H](C)O)C(C)C)C(=O)N[C@@H](CO)C(=O)N[C@@H](CCC(N)=O)C(=O)N[C@@H](CCC(=O)O)C(=O)N[C@@H](CC(C)C)C(=O)N[C@@H](Cc1c[nH]cn1)C(=O)N[C@@H](CCCNC(=N)N)C(=O)N[C@@H](CC(C)C)C(=O)N[C@@H](CCC(=O)O)C(=O)N[C@@H](CC(=O)O)C(=O)N[C@@H](Cc1ccc(O)cc1)C(=O)N1CCC[C@H]1C(=O)N[C@@H](CCCNC(=N)N)C(=O)N[C@H](C(=O)N[C@@H](CC(=O)O)C(=O)N[C@H](C(=O)NCC(=O)N[C@@H](CO)C(=O)NCC(=O)N[C@@H](CO)C(=O)N1CCC[C@H]1C(N)=O)C(C)C)[C@@H](C)O [M13] ({C20 diacid-γGlu}-ASQLSTAVLGRLSQELHRLEDYPRTDVGSGSP-NH2) | – | – | No change (a decrease of less than 1% from the initial value to the detected content is denoted as "no change") | particularly effective | particularly effective | – |
